Source: US9458427B2, “IFNγR2 compositions and methods of inhibiting neuronal cell death” (Case Western Reserve University, priority 2009, dated 2016)
Ends that are not written are not given here.

B1: IFNγR21-295: mutant encoding amino acids 1-295 of IFNγR2, retaining Jak2-binding domain but not the C-terminal 41 amino acids (protein)
chain: APPDPLSQLPAPQHPKIRLYNAEQVLSWEPVALSNSTRPVVYQVQFKYTDSKWFTADIMSIGVNCTQITATECDFTAASPSAGFPMDFNVTLRLRAELGALHSAWVTMPWFQHYRNVTVGPPENIEVTPGEGSLIIRFSSPFDIADTSTAFFCYYVHYWEKGGIQQVKGPFRSNSISLDNLKPSRVYCLQVQAQLLWNKSNIFRVGHLSNISCYETMADASTELQQVILISVGTFSLLSVLAGACFFLVLKYRGLIKYWFHTPPSIPLQIEEYL
modifications: left off: large carriers

Experiments:
[1] = test system: C57BL6/J mice hippocampus; assay: Intrahippocampal injection of oligomeric Aβ in mice; type: in vivo, mouse
Description: C57BL6/J mice (The Jackson Laboratories; 2-3-month-old) were anesthetized with pentobarbital and placed in a stereotaxic frame. Injection was made using a 10-μl microsyringe (Hamilton, Reno, Nev., USA). […] Control animals were prepared identically and injected with the same volume and concentration of Aβ42-1 in PBS. Injections were made at stereotaxic coordinates from bregma; antereoposterior (AP)=2.3 mm, mediolateral (ML)=2.5 mm and doroventral (DV)=−2.5 mm according to a previous report. This corresponds to a site in the dorsal hippocampus in the apical dendritic zones of the CA1 region near the hippocampal fissure. Mice were killed 10 or 20 days after injection, brains dissected out, fixed in 10% buffered-formalin and paraffin-embedded. For brain tissue sections, 6-μm-thick serial sections were cut, mounted onto slides and rehydrated according to standard protocols.
Cultured hippocampal slices were rinsed with icecold PBS once and fixed for 2 h with 4% paraformaldehayde in 0.1M PBS. After washing with PBS, sections were permeabilized overnight with PBS containing 0.2% Triton X-100. At the end of the permeabilization blocking solution, 10% normal goat serum in PBS was applied for 4 h at room temperature. After washing with PBS, primary antibody was added and incubated for 24-48 h at 4° C. After thorough washing of the sections in PBS, a secondary antibody labeled with either Alexa Fluor (Life Technologies, Grand Island, N.Y., USA) 488 or 568 (1:300) was added and incubated for 4 h at room temperature. All of the experiments contained at least one sample incubated without a primary antibody to exclude non-specific signal. Nuclei were visualized with DAPI. Images were acquired through an AxioCam camera on an Axiovert 200M microscope (Zeiss). Images were then analyzed with the Axiovision software (Zeiss).
Detection of 3′-OH termini of DNA strand breaks was performed using in situ cell death detection kit (Roche). Briefly, the tissue sections were treated with proteinase K (20 μg/ml in 10 mmol/l Tris-HCl, pH 7.4) for 30 min at 37° C. after rehydration. After rinsing with PBS, TUNEL reaction mixture containing terminal deoxynucleotidyl transferase and fluorescence-labeled nucleotide was applied for 1 h 37° C. The samples were then washed and mounted using Aquamount (Southern Biotech, Birmingham, Ala., USA).

[2] = test system: Bim, Bcl-2, Bax, caspase-3; assay: Western blot analysis of Bim, Bcl-2, Bax and cleaved caspase-3 in hippocampal slice cultures; type: cell-based, mouse
Description: (§1) Organotypic hippocampal slice cultures were prepared as described previously. Briefly, hippocampal slice cultures were prepared using 7-10-day-old mouse pups. Slices were cut at 400 μm on a Mcllwain tissue chopper, transferred to Millicell membrane inserts ([…]; Millipore), and placed in 6-well culture plates. The culture medium consisted of basal Eagle's medium with Earle's balanced salt solution, 20% heat-inactivated horse serum, enriched with 5.6 mM glucose. The medium was changed every other day. The effect of oligomeric Ab (500 nM) was tested in the slices that had been maintained for 11-14 days in vitro. Aβ oligomer or reversed sequence of Aβ1-42 control peptide (Aβ42-1) was added to cultures in serum-free medium and, after the treatment, the hippocampal slices were rinsed twice in ice-cold phosphate-buffered saline (PBS), and then harvested by removing the Millicell membrane insert.
The protein concentration was determined by BCA assay (Pierce, Rockford, Ill., USA). The extracted proteins were separated on 10 or 12% SDS-polyacrylamide gel and transferred onto polyvinylidene difluoride membranes. The blots were blocked with 10% non-fat milk in TBS-T for 1 h at room temperature, and then treated with primary antibodies diluted with 1% non-fat milk and incubated overnight at 4° C. The following antibodies were used for western blot analysis: anti-caspase-3 (1:1000; Santa Cruz Biotechnology, Santa Cruz, Calif., USA), anti-Bim (1:1000; Stressgen, Farmingdale, N.Y., USA), anti-Bcl-2 (1:1000; Stressgen) and 6A7 (conformational specific Bax antibody) (1:1000; BD Pharmingen, San Diego, Calif., USA).

[3] = molecular target: T1, Bax (Mus musculus, UniProt Q07813); assay: Immunocytochemistry with 6A7 antibody (active Bax) in hippocampal slice cultures; type: cell-based
T1 construct: from tissue; host or cells: mouse hippocampal slice culture
T1 sequence (Q07813 whole entry): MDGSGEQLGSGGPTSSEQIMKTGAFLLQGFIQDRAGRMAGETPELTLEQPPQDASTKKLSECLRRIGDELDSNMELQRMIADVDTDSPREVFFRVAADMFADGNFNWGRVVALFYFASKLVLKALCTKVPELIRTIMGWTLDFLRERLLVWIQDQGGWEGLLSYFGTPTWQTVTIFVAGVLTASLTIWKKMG
Description: as §1
Cultured hippocampal slices were rinsed with icecold PBS once and fixed for 2 h with 4% paraformaldehayde in 0.1M PBS. After washing with PBS, sections were permeabilized overnight with PBS containing 0.2% Triton X-100. At the end of the permeabilization blocking solution, 10% normal goat serum in PBS was applied for 4 h at room temperature. After washing with PBS, primary antibody was added and incubated for 24-48 h at 4° C. […] Images were then analyzed with the Axiovision software (Zeiss).

[4] = test system: organotypic hippocampal slice cultures; assay: Neuronal cell death in organotypic hippocampal slice cultures (PI uptake, Nissl staining); type: cell-based; settings: for Suppression of oligomeric Aβ-induced neuronal loss (Nissl staining): peptide co-applied with oligomeric Aβ; for Prevention of oligomeric Aβ-induced PI uptake: peptide co-applied with oligomeric Aβ (500 nM), after 24-h treatment
Description: as §1
To determine neuronal cell death in the hippocampal slices, PI (5 μg/ml) was added to the slice culture medium. Images were acquired through an AxioCam camera on an Axiovert 200M microscope (Zeiss, Oberkochen, Germany). Fluorescent intensity was measured using Image J (NIH, Bethesda, Md., USA). Hematoxylin and eosin (H&E) and Niss1 staining was also performed for routine histochemical and morphological analyses.

[5] = test system: HT1080 (IFNγR2 null mutant and JAK2 null mutant) cells; assay: Etoposide-induced apoptosis in HT1080-derived IFNγR2 null and Jak2 null cells (Hoechst nuclear staining); type: cell-based, human; settings: cells lacking IFNγR2 and Jak2, 10 μM etoposide for 24 h
Description: HT1080 (wild type, IFNγR2 null mutant and JAK2 null mutant) cells were cultured in Dulbecco's Modified Eagle's Medium (DMEM) supplemented with 10% fetal bovine serum (FBS). HeLa, Human Embryonic Kidney (HEK) 293 and HEK293T cells were purchased from ATCC, and cultured in DMEM supplemented with 10% FBS. LNCap and PC3 cells were purchased from ATCC and cultured in DMEM F12 medium supplemented with 10% FBS. RWPE1 and RWPE2 were purchased from ATCC and cultured in keratinocytes-SFM plus supplements medium (Gibco). Primary mammary epithelial (4A100) cultures were derived from organoids isolated from discarded mammary tissue acquired from patients undergoing reduction mammoplasty surgery. Anonymized specimens were acquired from patients who had given written consent, through the Tissue Procurement and Histology Core Facility of the Case Comprehensive Cancer Center (Case), under a Case CCC IRB approved protocol. Primary epithelial cultures were grown in M87A+X medium. Human HME1 cells (Clontech) were grown in medium 171 with mammary epithelial growth supplement (Cascade Biologics) and penicillin-streptomycin.42 Human breast cancer cell line MDA-MD468 was cultured in RPMI, 5% FBS, supplemented with L-glutamine, penicillin-streptomycin and fungizone (Gibco). […]
Cells were cultured overnight in DMEM supplemented with 10% FBS. […] Transfection efficiency was analyzed by the expression of the EGFP-tagged proteins.
(§2) Apoptosis was induced by transfecting the cells with pcDNA3-human Bax, or pcDNA3-human Bak, or pcDNA3-human Bim EL, or by treatment with etoposide (10 μM) or staurosporine (100 nM). To determine the induction of apoptosis by different apoptotic stresses, cells were stained with Hoechst 33258 dye, and the numbers of cells with apoptotic nuclei were counted using fluorescence microscopy. Three hundred cells were analyzed in triplicate samples. […] Caspase activity were measured by using a fluorogenic caspase 3 substrate II (Calbiochem), IFNγR2 constructs were cloned in pEGFP-C2 (IFNγR2wild type, IFNγR21-295 and IFNγR2296-337) vector.

[6] = molecular target: T2, Bax (Homo sapiens, UniProt Q07812); assay: Apoptosis induced by Bax overexpression in HEK293 cells (Hoechst nuclear staining); type: cell-based; design: expressed in transfected cells; host or cells: HEK293; settings: HEK293 cells co-transfected with pcDNA3-h Bax and pEGFP-C2-IFNγR2 construct, 24 h after transfection
T2 sequence (Q07812 whole entry): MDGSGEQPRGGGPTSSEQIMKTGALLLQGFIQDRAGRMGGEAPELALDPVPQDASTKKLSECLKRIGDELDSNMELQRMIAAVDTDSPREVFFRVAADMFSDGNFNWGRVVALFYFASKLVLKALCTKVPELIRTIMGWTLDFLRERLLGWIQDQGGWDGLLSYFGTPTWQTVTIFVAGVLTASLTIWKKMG
Description: (§3) Cells were cultured overnight in DMEM supplemented with 10% FBS. The transfections were performed using […]® (Qiagen, Valencia, Calif.) in accordance with the manufacturer's instructions. Transfection efficiency was analyzed by the expression of the EGFP-tagged proteins.
as §2
(§4) For Bax, Bak or Bim EL overexpression, cells were transfected with either 1 μg pcDNA3-human Bax, 1 μg pcDNA3-human Bak, or 1 μg pcDNA3 human Bim EL, and 4 μg of pEGFP plasmid encoding IFNγR2, and the apoptosis or caspase activity was determined 24 h after the transfection.

[7] = molecular target: T2, Bax; assay: Staurosporine-induced Bax activation in HeLa cells (6A7 antibody immunostaining); type: cell-based; design: endogenous in cells; host or cells: HeLa; settings: staurosporine 100 nM, 3 h
Description: HeLa cells were transiently transfected with pEGFP-C2-IFNγR2 (wild type 1-295, or 296-337) using […]® (Qiagen, Valencia, Calif.) in accordance with the manufacturer's instructions. Four micograms of the plasmid were used to transfect cells cultured in 6-cm diameter dishes. After 24 h of transfection, the cells were treated with staurosporine (100 nM) for 3 h. Then, the cells were washed with phosphate buffer pH 7.4 (PBS), fixed using paraformaldehyde (1%), permeabilized with Triton X-100 (0.02%), blocked with goat serum, and the activation of Bax was analyzed by immunocytochemistry using monoclonal Bax 6A7 antibody (BDPharmingen) and ALEXA FLUOR® 568-labeled anti-mouse IgG secondary antibody (Invitrogen).

[8] = test system: human Bim EL; assay: Apoptosis induced by Bim overexpression in HEK293T cells; type: cell-based; settings: 24 h after transfection
Description: as §3, §2, §4

[9] = test system: hippocampal slice cultures; assay: Cell permeability of FITC-tagged peptides in hippocampal slice cultures; type: cell-based, mouse; settings: after 24-h treatment
Text: In this study, in addition to utilizing Bax knockout (KO) mice, we utilized BIP to examine the role of Bax in oligomeric Aβ-induced neurotoxicity. BIP used in this study consists of five amino acids, VPTLK, a sequence that is known to inhibit Bax activation. […] Both peptides were tagged with fluorescein isothiocyanate (FITC) so that intracellular delivery can be tracked by FITC signal.

Molecule	Inhibition of etoposide-induced apoptosis [5]	Inhibition of apoptosis induced by Bax overexpression [6]	Inhibition of STS-induced Bax activation (6A7 Ab-positive cells in GFP-positive cells) [7]	Suppression of oligomeric Aβ-induced neuronal loss (Nissl staining) [4]	Prevention of oligomeric Aβ-induced PI uptake [4]	Cell permeability (green fluorescence of FITC-tagged peptide in neuronal cells) [9]	other results
oligomeric Aβ: soluble oligomeric Aβ prepared from synthetic Aβ1-42 peptide (AnaSpec)							Level of Bim in hippocampus ([1]; 10 days after injection): dramatically increased; Number of neurons containing the active form of Bax (6A7 antibody) ([1]; 10 days after injection): dramatically increased; Neuronal cell death in hippocampus ([1]; WT mouse, 20 days after intrahippocampal injection): induced neuronal cell death; Number of TUNEL-positive neurons ([1]; intrahippocampal injection): significantly increased; Level of Bax ([2]; oligomeric Aβ-treated brain slices): not affected; Expression of Bim ([2]; oligomeric Aβ-treated brain slices, time-dependent): increased the expression of Bim; Number of 6A7-positive cells (active form of Bax) ([3]; slice cultures, 24 h after treatment): significantly increased; Neuronal cell death induced by oligomeric Aβ in slice culture from bax−/− mice ([4]; bax−/− versus wild-type slices, 500 nM, 48 h): dramatically reduced; PI uptake / number of PI-positive cells (neuronal cell death) ([4]; wild-type slices, 500 nM, 48 h of treatment): significantly increased
IFNγR2296-337: mutant encoding amino acids 296-337 of IFNγR2, lacking the Jak2-binding domain; expressed as EGFP fusion (KDPTQPILEALDKDSSPKDDVWDSVSIISFPEKEQEDVLQTL; also: EGFP fusion; listed as Homo sapiens)	able to inhibit etoposide-induced apoptosis	able to inhibit apoptosis induced by Bax overexpression	inhibited STS-induced Bax activation				Inhibition of apoptosis induced by Bim overexpression [8]: able to inhibit apoptosis induced by Bim overexpression
VPTLK (also: FITC tag, site not given here) [BIP]				significantly suppressed	significantly prevented PI uptake	equally penetrated neuronal cells	Suppression of oligomeric Aβ-induced caspase-3 activation (immunoblot) ([2]; peptide co-applied with oligomeric Aβ): significantly suppressed; Suppression of oligomeric Aβ-induced conformational change of Bax (6A7) ([3]; slices treated with oligomeric Aβ for 48 h): suppresses oligomeric Aβ-induced conformational change of Bax
KLVPT [control peptide]				failed to prevent neuronal cell death	did not affect the level of PI uptake	equally penetrated neuronal cells	
B1	could not	could not protect cells from Bax	did not inhibit Bax activation				
